Patent EP0075167B1 (priority 1981, dated 1983)
Like-named read-outs stand apart in the source and are kept apart here.

Experiments:
[1] = tested on: Phytophthora infestans; assay type: in vivo; details: systemic; preparation poured onto standard soil of young tomato plants; inoculated 3 days after treatment; 100% rel. humidity, ca. 20°C; evaluated 3 days after inoculation; compared with prior-art comparison substances
[2] = tested on: Phytophthora infestans; assay type: in vivo; details: protective; young tomato plants sprayed to dripping wet, then inoculated with spore suspension; 100% rel. humidity, ca. 20°C; evaluated 3 days after inoculation; compared with prior-art comparison substances

Structure (SMILES)	Wirksamkeit [1]	Wirksamkeit [2]
C=C(C)N(C(=O)COC)c1c(C)cccc1C [Beispiel 1, N-Me-^1 thoxyacetyl-N-(1-methylvinyl)-2,6-dimethylanilin]	deutliche Überlegenheit in der Wirksamkeit gegenüber dem Stand der Technik	deutliche Überlegenheit in der Wirksamkeit gegenüber dem Stand der Technik
C#CCOCC(=O)N(C=C)c1c(C)cccc1C [Beispiel 9, N-Propargyloxyacetyl-N-vinyl-2,6-dimethylanilin]	deutliche Überlegenheit in der Wirksamkeit gegenüber dem Stand der Technik	–
C=C(C)N(C(=O)Cn1cncn1)c1c(C)cccc1C [Beispiel 8, N-(1-Methylvinyl)-N-(1,2,4-triazol-1-yl-acetyl)-2,6-dimethylanilin]	–	deutliche Überlegenheit in der Wirksamkeit gegenüber dem Stand der Technik
